Data from article PMC12169615, “Fluorescent 4‑Nitrobenzo-2-oxa-1,3-diazole-Coupled Bile Acids as Probe Substrates of Hepatic and Intestinal Bile Acid Transporters of the Solute Carrier Families SLC10 and SLCO” (Journal of Medicinal Chemistry, 2025).
Where “and” joins values, the source holds several entries; their conditions need not be identical. Equal values may be shown once.

Key:
[1] = Excitation-emission spectra of the 3-NBD-BA; assay type: physicochemical; conditions: NaCl-transport buffer, 1 pM compound concentration
Description: After the synthesis of this set of unconjugated as well as T- and G-conjugated 3β- and 3α-NBD-BA derivatives, namely 3β-NBD-CA (6a), 3β-NBD-CDCA (6b), 3β-NBD-DCA (6c), 3α-NBD-CA (6d), 3β-NBD-TCA (14a), 3β-NBD-TCDCA (14b), 3α-NBD-TCA (14d), 3β-NBD-GCA (16a), and 3α-NBD-GCA (16d) comprehensive transport studies were conducted with all fluorescent BA listed in Figure . Prior to the transport studies, the excitation and emission spectra of all fluorescent BA derivatives were determined to obtain the optimal emission and excitation wavelengths for subsequent fluorescent measurements at the fluorescence microscope and the fluorescent reader (Figure ). The excitation maxima (ExPeak) were at 468–470 nm and the emission maxima (EmPeak) at 538–540 nm for all fluorescent NBD-BA.
2 Excitation–emission-spectra of the 3-NBD-BA measured in NaCl-transport buffer at 1 pM compound concentration. The excitation (dotted line, ExPeak) and emission (solid line, EmPeak) peak wavelengths (in nm) are indicated for each compound. RFU, relative fluorescence units. […]

[2] = biological target: T1, mouse mAsbt (Mus musculus, UniProt P70172); assay: Quantitative uptake of 3-NBD-BA in carrier-expressing HEK293 cells (fluorescence reader); assay type: cell-based; design: stably transfected with the full open reading frames of human NTCP, ASBT, SOAT, OATP1B1, and OATP1B3 as well as mouse mNtcp and mAsbt; expressed in transfected cells; conditions: mAsbt-HEK293, 25 μM, 37 °C, +Na+ vs -Na+
T1 sequence (P70172 1-348): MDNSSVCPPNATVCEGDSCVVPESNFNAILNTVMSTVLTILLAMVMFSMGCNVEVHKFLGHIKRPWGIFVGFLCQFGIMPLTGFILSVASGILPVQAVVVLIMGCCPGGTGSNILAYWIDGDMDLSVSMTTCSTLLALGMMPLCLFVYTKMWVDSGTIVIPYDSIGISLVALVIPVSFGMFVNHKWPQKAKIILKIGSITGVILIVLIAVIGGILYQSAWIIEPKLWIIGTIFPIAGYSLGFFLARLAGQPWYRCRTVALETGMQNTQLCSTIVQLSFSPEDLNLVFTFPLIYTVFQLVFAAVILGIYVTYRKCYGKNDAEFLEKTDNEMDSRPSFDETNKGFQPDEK
Description: For quantification of the transport activity of the synthesized NBD-BA, all cell lines were seeded on 96 well plates and transport experiments were performed under the same control conditions (-Na^+ control for the SLC10 carriers and nontransfected HEK293 cells for the OATP carriers) as before (Figure ). For each NBD-BA, a substrate concentration of 25 μM was used, and the uptake phase was terminated after 10 min of incubation at 37 °C. […] The transport ratios ranged from 3-fold to 39-fold. In direct comparison, 3α-NBD-TCA (14d) and 3α-NBD-GCA (16d) were transported better than their 3β-analogs 3β-NBD-TCA (14a) and 3β-NBD-GCA (16a), respectively, clearly pointing to a preference for the α-position over the β-position of the 3-NBD-label. In direct comparison between the taurine- or glycine-conjugation of the respective NBD-BA, there was a clear preference for 3α-NBD-GCA (16d) over 3α-NBD-TCA (14d), at least for NTCP and mAsbt, pointing to a favorable substrate recognition for glycine-conjugated NBD-BA.
5 Quantitative uptake experiments with the 3-NBD-BA in HEK293 cells stably expressing the human carriers NTCP, ASBT, SOAT, OATP1B1, and OATP1B3, or the mouse carriers mNtcp and mAsbt. For the SLC10 carriers, all transport experiments were performed in the presence (filled bars) and the absence (hatched bars) of sodium. For the OATP carriers, uptake into carrier-expressing cells (filled bars) was compared to uptake into non-carrier-expressing HEK293 cells (hatched bars). All cell lines were incubated at 37 °C for 10 min with the indicated 3-NBD-BA at 25 μM. Then, cells were washed with PBS and subjected to fluorescence detection. The following fluorescent BA were analyzed: 3α-NBD-TCA (14d), 3β-NBD-TCA (14a), 3α-NBD-GCA (16d), 3β-NBD-GCA (16a), 3β-NBD-TCDCA (14b), 3β-NBD-CDCA (6b), 3β-NBD-DCA (6c), 3α-NBD-CA (6d), and 3β-NBD-CA (6a). Data represent means ± SD of triplicate determinations of representative experiments. […] RFU, relative fluorescence units. TEXT PRINTED IN THE PICTURE: 3α-NBD-TCA (14d): NTCP: 9 X; mNtcp: 30 X; ASBT: 2 X; mAsbt: 14 X | 3ß-NBD-TCA (14a): NTCP: 12 X; mNtcp: 20 X; mAsbt: 18 X | 3α-NBD-GCA (16d): NTCP: 27 X; mNtcp: 26 X; ASBT: 3 X; mAsbt: 39 X | 3ß-NBD-GCA (16a): NTCP: 15 X; mNtcp: 14 X; mAsbt: 5 X | 3ß-NBD-TCDCA (14b): NTCP: 5 X; mNtcp: 3 X; mAsbt: 4 X | 3ß-NBD-CDCA (6b): mNtcp: < 2 X; ASBT: < 2 X; mAsbt: < 2 X; OATP1B1: < 2 X; OATP1B3: < 2 X | 3ß-NBD-DCA (6c): mNtcp: < 2 X; ASBT: < 2 X; mAsbt: < 2 X | 3α-NBD-CA (6d): mNtcp: 2 X; mAsbt: 4 X | 3ß-NBD-CA (6a): NTCP: 2 X; mNtcp: 2 X; mAsbt: 2 X DOUBTS OF THE COPYIST ABOUT THIS PICTURE: The picture prints no panel letters, so the chart titles (NTCP, mNtcp, ASBT, mAsbt, OATP1B1, OATP1B3) are written in front of the values as the target. / Substance labels: the sign after '3' is printed like 'ß' and may be meant as 'β'. / The 'ns' marks and significance asterisks were left out as statistics. The SOAT chart prints only 'ns'.

[3] = logP(o/w), octanol/water partition; conditions: 1:1 mixture of water and 1-octanol, fluorescence detection or liquid scintillation; for logP: 1-octanol/water, LogP(o/w)
Description: 9 Membrane permeability of the 3-NBD-BA and logP(o/w) values. […] The lipophilic and hydrophilic phases were separated by centrifugation and both phases were analyzed by fluorescence detection or liquid scintillation, respectively.
All NBD-BA were diluted to 1 pM in STB, and […] and emission spectra were measured from 300 to 650 nm (Spark Multimode Microplate, Tecan, Männedorf, Switzerland). […] The [^3H]-CA was generously provided by Prof. Dr. Alan Hofmann, University of California (San Diego, United States).

| Compound | Emission peak wavelength (EmPeak) [1] | Excitation peak wavelength (ExPeak) [1] | Specific transport ratio mAsbt (25µM/10 min uptake) [2] | LogP(o/w) [3] | logP [3] |
| --- | --- | --- | --- | --- | --- |
| 7α-Hydroxy-3β-[(7-nitro-2,1,3-benzoxadiazol-4-yl)amino]-5β-cholan-24-oate [6b] | 538 nm | 468 nm | <2x x-fold | – | – |
| 12α-Hydroxy-3β-[(7-nitro-2,1,3-benzoxadiazol-4-yl)amino]-5β-cholan-24-oate [6c] | 538 nm | 468 nm | <2x x-fold | 2.147 | – |
| C[C@H](CCC(=O)O)[C@H]1CC[C@H]2[C@@H]3[C@H](O)C[C@@H]4C[C@@H](Nc5ccc([N+](=O)[O-])c6nonc56)CC[C@]4(C)[C@H]3C[C@H](O)[C@]12C [6a, 7α,12α-Dihydroxy-3β-[(7-nitro-2,1,3-benzoxadiazol-4-yl)amino]-5β-cholan-24-oate] | 538 nm | 468 nm | 2 x-fold and 2x x-fold | – | > 2 |
| C[C@H](CCC(=O)O)[C@H]1CC[C@H]2[C@@H]3[C@H](O)C[C@@H]4C[C@H](Nc5ccc([N+](=O)[O-])c6nonc56)CC[C@]4(C)[C@H]3C[C@H](O)[C@]12C [6d, 7α,12α-Dihydroxy-3α-[(7-nitro-2,1,3-benzoxadiazol-4-yl)amino]-5β-cholan-24-oate] | 538 nm | 468 nm | 4 x-fold and 4x x-fold | – | 2.8 |
| C[C@H](CCC(=O)NCCS(=O)(=O)[O-])[C@H]1CC[C@H]2[C@@H]3[C@H](O)C[C@@H]4C[C@@H](Nc5ccc([N+](=O)[O-])c6nonc56)CC[C@]4(C)[C@H]3C[C@H](O)[C@]12C.[Na+] [14a] | 538 nm | 468 nm | 18x x-fold | – | 0.14 |
| C[C@H](CCC(=O)NCCS(=O)(=O)[O-])[C@H]1CC[C@H]2[C@@H]3[C@H](O)C[C@@H]4C[C@H](Nc5ccc([N+](=O)[O-])c6nonc56)CC[C@]4(C)[C@H]3C[C@H](O)[C@]12C.[Na+] [14d] | 538 nm | 468 nm | 14x x-fold | 0.027 | 0.03 |
| C[C@H](CCC(=O)NCC(=O)O)[C@H]1CC[C@H]2[C@@H]3[C@H](O)C[C@@H]4C[C@@H](Nc5ccc([N+](=O)[O-])c6nonc56)CC[C@]4(C)[C@H]3C[C@H](O)[C@]12C [16a] | 538 nm | 468 nm | 5x x-fold | – | -0.01 |
| C[C@H](CCC(=O)NCC(=O)O)[C@H]1CC[C@H]2[C@@H]3[C@H](O)C[C@@H]4C[C@H](Nc5ccc([N+](=O)[O-])c6nonc56)CC[C@]4(C)[C@H]3C[C@H](O)[C@]12C [16d] | 538 nm | 468 nm | 39x x-fold | – | 0.462 |
